The NIST ThermoML archive (doi:10.1016/j.jct.2011.10.014)

Details: 101.33 kPa, Crystal, Vacuum adiabatic calorimetry

O=C([O-])[O-].[Pb+2] [lead(II) carbonate]
Details	molar entropy [J/K/mol]
5 K	0.0215
10 K	0.2771
15 K	1.17
20 K	2.745
25 K	4.823
30 K	7.25
35 K	9.921
40 K	12.76
45 K	15.72
50 K	18.76
55 K	21.83
60 K	24.93
65 K	28.02
70 K	31.09
75 K	34.13
80 K	37.12
85 K	40.07
90 K	42.97
95 K	45.81
100 K	48.59
110 K	53.97
120 K	59.11
130 K	64.03
140 K	68.74
150 K	73.25
160 K	77.6
170 K	81.78
180 K	85.81
190 K	89.7
200 K	93.46
210 K	97.11
220 K	100.6
230 K	104.1
240 K	107.4
250 K	110.7
260 K	113.9
270 K	117
273.15 K	118
280 K	120.1
290 K	123
298.15 K	125.4
300 K	126
310 K	128.9
320 K	131.7
